According to PubChem BioAssay AID463203 (Broad Institute, 2010):
Active and inactive are the calls of the source.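 The calls were made as follows: active = more than half of replicate measurements showing over 20% loss of kinase signal relative to plate controls; inconclusive = some but at most half of replicates over 20% loss; inactive = no replicate over 20% signal loss.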

Each compound was assayed against Glycogen synthase kinase-3 alpha (Homo sapiens) (UniProt P49840) (assay: concentration-response blocking of human GSK3A – biochemical, luminescence, cell-free homogeneous, retest, dose response (AID 463203)). Conditions: GSK-3 alpha enzyme, ADP-Glo luminescence, 60 min.
Chain of Glycogen synthase kinase-3 alpha (Homo sapiens) (P49840 whole entry, looked up): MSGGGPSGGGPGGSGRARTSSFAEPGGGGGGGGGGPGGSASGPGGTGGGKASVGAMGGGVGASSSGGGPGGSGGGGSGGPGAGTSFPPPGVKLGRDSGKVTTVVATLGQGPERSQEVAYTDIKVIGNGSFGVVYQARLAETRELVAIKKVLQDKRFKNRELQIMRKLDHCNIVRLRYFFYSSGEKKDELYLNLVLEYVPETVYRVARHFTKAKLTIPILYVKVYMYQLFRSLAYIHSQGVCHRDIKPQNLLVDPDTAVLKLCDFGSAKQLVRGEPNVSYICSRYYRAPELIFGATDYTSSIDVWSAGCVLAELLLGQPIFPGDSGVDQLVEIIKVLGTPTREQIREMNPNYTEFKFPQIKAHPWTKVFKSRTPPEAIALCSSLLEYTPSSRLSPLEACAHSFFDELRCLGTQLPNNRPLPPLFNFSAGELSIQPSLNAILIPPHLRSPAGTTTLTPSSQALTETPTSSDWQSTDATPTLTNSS

Row | Compound | AC50
1 | OCc1cn(-c2ccccc2)nn1 | > 30 µM (inactive)
2 | CCOC(=O)c1nnn(-c2nonc2N)c1COc1cc(C)c(Cl)c(C)c1 | 6.9 µM
3 | CC(C)CN(C(=O)CN1CC=C(c2ccccc2)CC1)c1c(N)n(CC(C)C)c(=O)[nH]c1=O | > 30 µM (inactive)
4 | C/C(=C/c1oc2ccc(O)cc2c1[N+](=O)[O-])N(C)C | > 30 µM (inactive)
5 | CC1(C)OC2OC(COC(=O)c3ccccc3)C3OC(C)(C)OC3C2O1 (stereo not given) | > 30 µM (inactive)
6 | Cc1cccc(C)c1OCC(O)CNC(C)(C)C (stereo not given) | > 30 µM (inactive)
7 | CC(C)CCSc1cc(NCCO)c([N+](=O)[O-])c2nonc12 | > 30 µM (inactive)
8 | Cc1cccc(NC(=O)c2sc(Cl)nc2-c2ccccc2)c1 | > 30 µM (inactive)
9 | COc1ccc(Br)cc1C(=O)Nc1ccc(NC(=O)c2ccco2)cc1 | > 30 µM (inactive)
10 | CCC(Sc1ccc2nnc(-c3ccc(OC)c(OC)c3)n2n1)C(=O)O (stereo not given) | 29.2 µM
11 | Cc1nnc(SCC(=O)N(C(C)C)C(C)C)nc1C | > 30 µM (inactive)
12 | Cc1nc2ncnn2c(C)c1Cc1ccccc1Cl | > 30 µM (inactive)
13 | COc1cccc(/C=N/NC(=O)C(=O)N2CCCC2)c1OC | > 30 µM (inactive)
14 | COc1cc2ncc(S(=O)(=O)c3ccccc3)c(N3CCCC(C)C3)c2cc1OC (stereo not given) | > 30 µM (inactive)
15 | CN1CCN(c2nc(NCc3ccco3)nc(N)c2[N+](=O)[O-])CC1 | > 30 µM (inactive)
16 | NC1=NC(=O)/C(=C\c2ccc(-c3ccc(Cl)cc3)o2)S1 | 1.4 µM
17 | Cc1cccc(N2CC(C(=O)Nc3nccs3)CC2=O)c1C (stereo not given) | > 30 µM (inactive)
18 | CCOc1ccc(S(=O)(=O)Nc2cccc(C(=O)NCCCn3ccnc3)c2)cc1 | > 30 µM (inactive)
19 | N#Cc1c(Nc2ccccc2)c(/C=N/NCCO)c[nH]c1=O | > 30 µM (inactive)
20 | COc1cccc(-c2cc(C(=O)N3CCN(c4ccccc4OC)CC3)no2)c1 | > 30 µM (inactive)
21 | O=C(c1cccnc1NCc1ccccc1)N1CCOCC1 | > 30 µM (inactive)
22 | CC1CCC[C@H](O)CCCCCc2cc(O)cc(O)c2C(=O)O1 (stereo not given in full) | > 30 µM (inactive)
23 | Cc1ccc2nc(-c3ccccc3N)[nH]c2c1 | > 30 µM (inactive)
24 | COc1ccc(S(=O)(=O)NCc2ccc(C(=O)N3CCC4(CC3)OCCO4)cc2)cc1 | > 30 µM (inactive)
25 | CCOc1ccc2nc(NC(=O)CSc3ccccc3)sc2c1 | > 30 µM (inactive)

Row | Compound | AC50
26 | COc1ccc(NC2CC(=O)NC2=O)cc1 (stereo not given) | > 30 µM (inactive)
27 | O=C1NC(=Nc2ccccc2Cl)S/C1=C\c1cccc([N+](=O)[O-])c1O | 24 µM
28 | COCc1c(C(=O)N/N=C\c2cccnc2)nnn1-c1nonc1N | > 30 µM (inactive)
29 | CC(C)c1c(C(=O)N/N=C/c2ccsc2)nnn1-c1nonc1N | > 30 µM (inactive)
30 | O=C(CSc1nc2ccccc2o1)Nc1nc2ccc(Br)cc2s1 | > 30 µM (inactive)
31 | Cc1ccc(CSc2nnc(-c3cccnc3)o2)cc1 | > 30 µM (inactive)
32 | CCOC(=O)Cc1csc(NC(=O)C2CCCN(S(=O)(=O)c3cnc[nH]3)C2)n1 (stereo not given) | > 30 µM (inactive)
33 | NNc1nc2sc3c(c2c(=O)[nH]1)CCc1ccccc1-3 | > 30 µM (inactive)
34 | COc1ccc(-c2noc(CSc3nc(-c4ccccc4)cc(=O)[nH]3)n2)cc1 | > 30 µM (inactive)
35 | CC(=O)Oc1cc(O)c2c(=O)c(OC(C)=O)c(-c3ccc(OC(C)=O)c(OC(C)=O)c3)oc2c1 | 15.4 µM
36 | Cc1cnc(NC(=O)C2COc3ccccc3O2)s1 (stereo not given) | 19.2 µM
37 | O=C(CNS(=O)(=O)c1ccccc1)N/N=C/c1ccc(O)cc1 | 30.2 µM
38 | CCCCN(CC)C(=O)c1oc2ccc(S(=O)(=O)N3CCCC3)cc2c1C | > 30 µM (inactive)
39 | O=C(c1ccc2c3n(nc2c1)-c1ccc(Cl)cc1CO3)N1CCOCC1 | > 30 µM (inactive)
40 | CC1(C)Cc2nc3sc4c(SCC(=O)O)ncnc4c3cc2CO1 | 6.18 µM
41 | Cc1oc2ccc(O)cc2c1C(=O)c1ccc(Br)cc1 | > 30 µM (inactive)
42 | COc1ccc(CNc2ccc3cn[nH]c3c2)c(OC)c1OC | 19.8 µM
43 | COc1cccc(N(CC(=O)Nc2cccc(C(C)=O)c2)S(C)(=O)=O)c1 | > 30 µM (inactive)
44 | COc1ccc(NC(=O)CSc2nc3[nH]ncc3c(=O)n2-c2ccccc2OC)cc1OC | > 30 µM (inactive)
45 | CC1=C(C(=O)OCc2ccccc2)C(c2cccc(Br)c2)NC(=O)N1 (stereo not given) | 28.7 µM
46 | CCCCCCCCCCCCCCCC[N+](C)(C)CC | > 30 µM (inactive)
47 | c1cc2[nH]snc2c2nc(C3CC3)nc12 | 20.8 µM
48 | COc1cc(C(=O)NCC(=O)N/N=C\C(C)=C/c2ccccc2)cc(OC)c1OC | > 30 µM (inactive)
49 | CNc1ccc(/C=C/C(=O)c2ccc3c(c2)OCCO3)cc1[N+](=O)[O-] | > 30 µM (inactive)
50 | Cc1cccc(-n2ncc(C#N)c2-n2cccc2)c1 | > 30 µM (inactive)

Row | Compound | AC50
51 | COc1c(C)cc(Br)cc1C(=O)Nc1cccc(NC(=O)c2ccco2)c1 | > 30 µM (inactive)
52 | O=C(CSc1cccs1)Nc1ccc(Cl)cc1 | > 30 µM (inactive)
53 | Cc1ccc(-c2cn3cccnc3n2)cc1NC(=O)c1cccs1 | > 30 µM (inactive)
54 | CCOC(=O)c1c(NC(=O)C2CC2)sc(C)c1CC | > 30 µM (inactive)
55 | CC1(C)CC(=O)C2=C(C1)Nc1nc(SCCN3CCOCC3)[nH]c(=O)c1C2c1cccs1 (stereo not given) | > 30 µM (inactive)
56 | Cc1ccc(CSc2nnc(SCC(=O)N/N=C/c3ccc(C(=O)O)cc3)s2)cc1 | > 30 µM (inactive)
57 | Cc1cc(NC(=O)COC(=O)c2cc(S(=O)(=O)N3CCOCC3)ccc2N2CCCCC2)no1 | 10.1 µM
58 | O=C(CSc1nc2ccccc2c(=O)n1-c1ccc(F)cc1F)c1c[nH]c2ccccc12 | > 30 µM (inactive)
59 | CCOC(=O)c1c(-c2cccc([N+](=O)[O-])c2)csc1N | 6.81 µM
60 | N#Cc1c2ccc(O)cc2n2ccccc12 | 3.56 µM
61 | CCOC(=O)c1ccc(N2CSC3=C(C#N)C(c4cccs4)CC(=O)N3C2)cc1 (stereo not given) | > 30 µM (inactive)
62 | COc1ccc(C(CNc2ccc(S(=O)(=O)N3CCCC3)cc2[N+](=O)[O-])N2CCCC2)cc1 (stereo not given) | > 30 µM (inactive)
63 | COc1ccc(OC)c(C2=Nn3c(nnc3-c3ccncc3)SC2)c1 | 1.5 µM
64 | O=C(N/N=C/c1ccc(Cl)c(Cl)c1)c1ccc2nc[nH]c2c1 | > 30 µM (inactive)
65 | COC(=O)c1c(NC(=O)CN2C(=O)NC3(CCC(C(C)(C)C)CC3)C2=O)sc2c1CCCCC2 (stereo not given) | > 30 µM (inactive)
66 | Clc1ccc(Nc2ncn[nH]2)cc1 | > 30 µM (inactive)
67 | COc1ccccc1NC(=O)Nc1ccccc1Br | > 30 µM (inactive)
68 | COc1ccc(S(=O)(=O)N[C@@H](CC(C)C)C(=O)O)cc1 | > 30 µM (inactive)
69 | CSc1ncccc1-c1nc2ccccc2[nH]1 | > 30 µM (inactive)
70 | O=C(c1ccco1)N(Cc1ccc([N+](=O)[O-])cc1)c1ccc(Br)cc1 | > 30 µM (inactive)
71 | COc1cccc(NC(=O)CN(C)C(=O)C23CC4CC(CC(Cl)(C4)C2)C3)c1 | > 30 µM (inactive)
72 | Cc1cc2nc(-c3ccc(SCC(=O)NC(C)C)nc3)[nH]c2cc1C | > 30 µM (inactive)
73 | COc1ccc(CCNC(=O)CSc2nc3[nH]ncc3c(=O)n2-c2ccccc2OC)cc1OC | 1.89 µM
74 | CN1/C(=C/C(=O)C2CC2)C(C)(C)c2ccccc21 | > 30 µM (inactive)
75 | CCOc1ccc(-c2nnc(N)s2)cc1 | > 30 µM (inactive)
